From US8969516B2, “Method of hydrolysis of peptide bond” (priority 2006, dated 2015)

Assay: MALDI-TOF screening of Ni^2+ dependent hydrolysis in a combinatorial peptide library
Type: physicochemical
Settings: CH3CO-Gly-Ala-Thr-X-His-Z-Lys-Phe-Leu-NH2 library, Ni^2+ 2 mM, pH 8.2, 10 mM Tris, score=24/tm
In short: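 Ni2+ 2 mM, peptide pool 1 mM (total), 10 mM Tris pH 8.2; 37 °C and 45 °C in parallel; MS aliquots at 2/4/6/8 h; products detected visually. X: all proteinogenic residues except Asp, Glu, Cys; Z: all except Cys.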

Substance	hydrolysis score from MALDI-TOF screening (37° C.)	hydrolysis score from MALDI-TOF screening (45° C.)
Ac-GATTHHKFL-NH2 [TTHH]	0 (a score of 0 if no trace of the product of hydrolysis was seen after 8 hours of incubation)	0 (a score of 0 if no trace of the product of hydrolysis was seen after 8 hours of incubation)
Ac-GATTHIKFL-NH2 [TTHI]	0 (a score of 0 if no trace of the product of hydrolysis was seen after 8 hours of incubation)	0 (a score of 0 if no trace of the product of hydrolysis was seen after 8 hours of incubation)
Ac-GATTHKKFL-NH2 [TTHK]	0 (a score of 0 if no trace of the product of hydrolysis was seen after 8 hours of incubation)	0 (a score of 0 if no trace of the product of hydrolysis was seen after 8 hours of incubation)
Ac-GATTHLKFL-NH2 [TTHL]	0 (a score of 0 if no trace of the product of hydrolysis was seen after 8 hours of incubation)	0 (a score of 0 if no trace of the product of hydrolysis was seen after 8 hours of incubation)
Ac-GATTHMKFL-NH2 [TTHM]	0 (a score of 0 if no trace of the product of hydrolysis was seen after 8 hours of incubation)	0 (a score of 0 if no trace of the product of hydrolysis was seen after 8 hours of incubation)
Ac-GATTHNKFL-NH2 [TTHN]	0 (a score of 0 if no trace of the product of hydrolysis was seen after 8 hours of incubation)	0 (a score of 0 if no trace of the product of hydrolysis was seen after 8 hours of incubation)
Ac-GATTHPKFL-NH2 [TTHP]	0 (a score of 0 if no trace of the product of hydrolysis was seen after 8 hours of incubation)	0 (a score of 0 if no trace of the product of hydrolysis was seen after 8 hours of incubation)
Ac-GATTHQKFL-NH2 [TTHQ]	0 (a score of 0 if no trace of the product of hydrolysis was seen after 8 hours of incubation)	0 (a score of 0 if no trace of the product of hydrolysis was seen after 8 hours of incubation)
Ac-GATTHRKFL-NH2 [TTHR]	0 (a score of 0 if no trace of the product of hydrolysis was seen after 8 hours of incubation)	3 (a score of 3 for detection at 8 hours)
Ac-GATTHSKFL-NH2 [TTHS]	0 (a score of 0 if no trace of the product of hydrolysis was seen after 8 hours of incubation)	0 (a score of 0 if no trace of the product of hydrolysis was seen after 8 hours of incubation)
Ac-GATTHTKFL-NH2 [TTHT]	0 (a score of 0 if no trace of the product of hydrolysis was seen after 8 hours of incubation)	0 (a score of 0 if no trace of the product of hydrolysis was seen after 8 hours of incubation)
Ac-GATTHVKFL-NH2 [TTHV]	0 (a score of 0 if no trace of the product of hydrolysis was seen after 8 hours of incubation)	0 (a score of 0 if no trace of the product of hydrolysis was seen after 8 hours of incubation)
Ac-GATTHWKFL-NH2 [TTHW]	0 (a score of 0 if no trace of the product of hydrolysis was seen after 8 hours of incubation)	0 (a score of 0 if no trace of the product of hydrolysis was seen after 8 hours of incubation)
Ac-GATTHYKFL-NH2 [TTHY]	0 (a score of 0 if no trace of the product of hydrolysis was seen after 8 hours of incubation)	0 (a score of 0 if no trace of the product of hydrolysis was seen after 8 hours of incubation)
Ac-GATVHAKFL-NH2 [TVHA]	0 (a score of 0 if no trace of the product of hydrolysis was seen after 8 hours of incubation)	0 (a score of 0 if no trace of the product of hydrolysis was seen after 8 hours of incubation)
Ac-GATVHDKFL-NH2 [TVHD]	0 (a score of 0 if no trace of the product of hydrolysis was seen after 8 hours of incubation)	0 (a score of 0 if no trace of the product of hydrolysis was seen after 8 hours of incubation)
Ac-GATVHEKFL-NH2 [TVHE]	0 (a score of 0 if no trace of the product of hydrolysis was seen after 8 hours of incubation)	0 (a score of 0 if no trace of the product of hydrolysis was seen after 8 hours of incubation)
Ac-GATVHFKFL-NH2 [TVHF]	0 (a score of 0 if no trace of the product of hydrolysis was seen after 8 hours of incubation)	0 (a score of 0 if no trace of the product of hydrolysis was seen after 8 hours of incubation)

Substance	hydrolysis score from MALDI-TOF screening (37° C.)	hydrolysis score from MALDI-TOF screening (45° C.)
Ac-GATVHGKFL-NH2 [TVHG]	0 (a score of 0 if no trace of the product of hydrolysis was seen after 8 hours of incubation)	0 (a score of 0 if no trace of the product of hydrolysis was seen after 8 hours of incubation)
Ac-GATVHHKFL-NH2 [TVHH]	0 (a score of 0 if no trace of the product of hydrolysis was seen after 8 hours of incubation)	0 (a score of 0 if no trace of the product of hydrolysis was seen after 8 hours of incubation)
Ac-GATVHIKFL-NH2 [TVHI]	0 (a score of 0 if no trace of the product of hydrolysis was seen after 8 hours of incubation)	0 (a score of 0 if no trace of the product of hydrolysis was seen after 8 hours of incubation)
Ac-GATVHKKFL-NH2 [TVHK]	0 (a score of 0 if no trace of the product of hydrolysis was seen after 8 hours of incubation)	0 (a score of 0 if no trace of the product of hydrolysis was seen after 8 hours of incubation)
Ac-GATVHLKFL-NH2 [TVHL]	0 (a score of 0 if no trace of the product of hydrolysis was seen after 8 hours of incubation)	0 (a score of 0 if no trace of the product of hydrolysis was seen after 8 hours of incubation)
Ac-GATVHMKFL-NH2 [TVHM]	0 (a score of 0 if no trace of the product of hydrolysis was seen after 8 hours of incubation)	0 (a score of 0 if no trace of the product of hydrolysis was seen after 8 hours of incubation)
Ac-GATVHPKFL-NH2 [TVHP]	0 (a score of 0 if no trace of the product of hydrolysis was seen after 8 hours of incubation)	0 (a score of 0 if no trace of the product of hydrolysis was seen after 8 hours of incubation)
Ac-GATVHQKFL-NH2 [TVHQ]	0 (a score of 0 if no trace of the product of hydrolysis was seen after 8 hours of incubation)	0 (a score of 0 if no trace of the product of hydrolysis was seen after 8 hours of incubation)
Ac-GATVHRKFL-NH2 [TVHR]	0 (a score of 0 if no trace of the product of hydrolysis was seen after 8 hours of incubation)	3 (a score of 3 for detection at 8 hours)
Ac-GATVHSKFL-NH2 [TVHS]	0 (a score of 0 if no trace of the product of hydrolysis was seen after 8 hours of incubation)	0 (a score of 0 if no trace of the product of hydrolysis was seen after 8 hours of incubation)
Ac-GATVHVKFL-NH2 [TVHV]	0 (a score of 0 if no trace of the product of hydrolysis was seen after 8 hours of incubation)	0 (a score of 0 if no trace of the product of hydrolysis was seen after 8 hours of incubation)
Ac-GATVHWKFL-NH2 [TVHW]	0 (a score of 0 if no trace of the product of hydrolysis was seen after 8 hours of incubation)	3 (a score of 3 for detection at 8 hours)
Ac-GATVHYKFL-NH2 [TVHY]	0 (a score of 0 if no trace of the product of hydrolysis was seen after 8 hours of incubation)	0 (a score of 0 if no trace of the product of hydrolysis was seen after 8 hours of incubation)
Ac-GATWHAKFL-NH2 [TWHA]	0 (a score of 0 if no trace of the product of hydrolysis was seen after 8 hours of incubation)	0 (a score of 0 if no trace of the product of hydrolysis was seen after 8 hours of incubation)
Ac-GATWHDKFL-NH2 [TWHD]	0 (a score of 0 if no trace of the product of hydrolysis was seen after 8 hours of incubation)	0 (a score of 0 if no trace of the product of hydrolysis was seen after 8 hours of incubation)
Ac-GATWHEKFL-NH2 [TWHE]	0 (a score of 0 if no trace of the product of hydrolysis was seen after 8 hours of incubation)	0 (a score of 0 if no trace of the product of hydrolysis was seen after 8 hours of incubation)
Ac-GATWHFKFL-NH2 [TWHF]	0 (a score of 0 if no trace of the product of hydrolysis was seen after 8 hours of incubation)	0 (a score of 0 if no trace of the product of hydrolysis was seen after 8 hours of incubation)
Ac-GATWHGKFL-NH2 [TWHG]	0 (a score of 0 if no trace of the product of hydrolysis was seen after 8 hours of incubation)	0 (a score of 0 if no trace of the product of hydrolysis was seen after 8 hours of incubation)
